Ki and IC50 data for one compound are collected here from ChEMBL document CHEMBL4706549, “Isoquinolinone derivatives as potent CNS multi-receptor D/5-HT/5-HT/5-HT/5-HT agents: Synthesis and pharmacological evaluation” (Eur J Med Chem, 2020).

One assay addresses Histamine H3 receptor (Homo sapiens, UniProt Q9Y5N1). Briefly: Binding affinity to H3 receptor (unknown origin).
Another assay addresses D(3) dopamine receptor (Homo sapiens, UniProt P35462).
For assay [1], the target named is Sodium-dependent dopamine transporter (Homo sapiens, UniProt Q01959). Briefly: Binding affinity to DAT (unknown origin).
Chain of Sodium-dependent dopamine transporter (Q01959 whole entry): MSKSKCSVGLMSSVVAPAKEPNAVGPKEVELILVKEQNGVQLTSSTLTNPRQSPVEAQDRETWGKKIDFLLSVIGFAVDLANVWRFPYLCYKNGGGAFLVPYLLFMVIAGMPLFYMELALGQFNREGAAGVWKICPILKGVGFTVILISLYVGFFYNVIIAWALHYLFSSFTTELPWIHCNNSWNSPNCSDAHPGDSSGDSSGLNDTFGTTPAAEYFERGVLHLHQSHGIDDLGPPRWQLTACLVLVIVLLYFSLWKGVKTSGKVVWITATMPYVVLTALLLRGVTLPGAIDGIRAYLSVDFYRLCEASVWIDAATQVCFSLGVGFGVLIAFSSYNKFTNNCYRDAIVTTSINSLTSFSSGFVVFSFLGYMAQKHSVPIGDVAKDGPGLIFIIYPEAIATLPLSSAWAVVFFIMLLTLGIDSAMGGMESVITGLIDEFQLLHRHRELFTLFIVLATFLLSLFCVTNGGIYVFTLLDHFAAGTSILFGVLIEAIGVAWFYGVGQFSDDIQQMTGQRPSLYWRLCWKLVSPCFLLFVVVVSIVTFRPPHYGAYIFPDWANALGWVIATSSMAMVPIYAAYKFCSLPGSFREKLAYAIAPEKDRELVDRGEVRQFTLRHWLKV
Assay [2] addresses T1, 5-hydroxytryptamine receptor 1A (Rattus norvegicus, UniProt P19327).
T1 sequence (P19327 whole entry): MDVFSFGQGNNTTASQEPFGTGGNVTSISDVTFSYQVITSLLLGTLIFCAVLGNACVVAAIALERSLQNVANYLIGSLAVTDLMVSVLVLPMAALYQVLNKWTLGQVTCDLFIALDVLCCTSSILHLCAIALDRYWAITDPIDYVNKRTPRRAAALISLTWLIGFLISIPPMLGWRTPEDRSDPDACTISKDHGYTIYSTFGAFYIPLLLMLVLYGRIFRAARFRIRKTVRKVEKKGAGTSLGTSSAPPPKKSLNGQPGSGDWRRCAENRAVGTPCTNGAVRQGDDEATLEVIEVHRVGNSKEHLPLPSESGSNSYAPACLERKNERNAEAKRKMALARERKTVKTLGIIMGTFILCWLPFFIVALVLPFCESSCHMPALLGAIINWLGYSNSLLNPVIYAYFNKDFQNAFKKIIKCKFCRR
Put plainly: biochemical.

In assay [3] the target is Voltage-gated inwardly rectifying potassium channel KCNH2 (Homo sapiens, UniProt Q12809).
Chain of Voltage-gated inwardly rectifying potassium channel KCNH2 (Q12809 whole entry): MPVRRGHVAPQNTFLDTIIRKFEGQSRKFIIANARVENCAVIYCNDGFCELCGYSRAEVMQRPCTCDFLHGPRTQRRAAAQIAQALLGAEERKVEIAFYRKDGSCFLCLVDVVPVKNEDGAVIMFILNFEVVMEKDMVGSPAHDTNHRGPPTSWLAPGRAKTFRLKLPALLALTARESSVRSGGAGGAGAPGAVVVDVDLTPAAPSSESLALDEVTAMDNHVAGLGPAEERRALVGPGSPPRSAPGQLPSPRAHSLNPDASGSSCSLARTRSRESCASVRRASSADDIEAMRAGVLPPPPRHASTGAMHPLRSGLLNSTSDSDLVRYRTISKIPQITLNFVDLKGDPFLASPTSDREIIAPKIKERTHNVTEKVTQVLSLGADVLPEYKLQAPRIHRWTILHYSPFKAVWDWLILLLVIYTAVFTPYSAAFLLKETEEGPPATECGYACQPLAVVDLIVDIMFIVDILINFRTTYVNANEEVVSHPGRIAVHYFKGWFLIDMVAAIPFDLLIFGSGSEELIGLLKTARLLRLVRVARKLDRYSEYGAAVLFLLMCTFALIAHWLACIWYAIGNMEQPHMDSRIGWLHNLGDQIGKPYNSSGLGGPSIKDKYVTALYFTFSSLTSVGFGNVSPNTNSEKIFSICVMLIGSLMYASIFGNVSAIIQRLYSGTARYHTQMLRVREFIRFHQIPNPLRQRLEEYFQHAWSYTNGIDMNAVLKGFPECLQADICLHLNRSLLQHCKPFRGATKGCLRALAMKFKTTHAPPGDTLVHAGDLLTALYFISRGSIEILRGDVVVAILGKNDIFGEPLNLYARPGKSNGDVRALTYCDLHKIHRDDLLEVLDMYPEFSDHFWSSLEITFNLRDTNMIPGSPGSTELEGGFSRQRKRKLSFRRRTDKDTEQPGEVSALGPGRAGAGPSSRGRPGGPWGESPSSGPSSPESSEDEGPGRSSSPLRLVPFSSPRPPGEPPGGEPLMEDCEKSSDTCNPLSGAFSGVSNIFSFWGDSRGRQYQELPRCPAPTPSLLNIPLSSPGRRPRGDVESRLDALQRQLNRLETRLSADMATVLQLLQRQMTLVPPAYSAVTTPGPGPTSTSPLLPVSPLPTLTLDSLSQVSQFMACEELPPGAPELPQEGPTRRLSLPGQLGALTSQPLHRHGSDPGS
Assay [4] concerns the target 5-hydroxytryptamine receptor 2A (Homo sapiens, UniProt P28223). Put plainly: Antagonist activity at human 5HT2A receptor expressed in CHO-K1 cells assessed as inhibition of 5HT-induced calcium flux incubated for 60 mins at 37 degC followed by 15 mins incubation at room temperature and subsequent 5HT addition by calcium 4 dye based FLIPR assay. It is filed as functional, cell-based. In general terms: A change in cytosolic calcium serves as a functional read-out for many receptors and channels.

In assay [5] the target is Sodium-dependent serotonin transporter (Homo sapiens, UniProt P31645). Briefly: Binding affinity to SERT (unknown origin).
Chain of Sodium-dependent serotonin transporter (P31645 whole entry): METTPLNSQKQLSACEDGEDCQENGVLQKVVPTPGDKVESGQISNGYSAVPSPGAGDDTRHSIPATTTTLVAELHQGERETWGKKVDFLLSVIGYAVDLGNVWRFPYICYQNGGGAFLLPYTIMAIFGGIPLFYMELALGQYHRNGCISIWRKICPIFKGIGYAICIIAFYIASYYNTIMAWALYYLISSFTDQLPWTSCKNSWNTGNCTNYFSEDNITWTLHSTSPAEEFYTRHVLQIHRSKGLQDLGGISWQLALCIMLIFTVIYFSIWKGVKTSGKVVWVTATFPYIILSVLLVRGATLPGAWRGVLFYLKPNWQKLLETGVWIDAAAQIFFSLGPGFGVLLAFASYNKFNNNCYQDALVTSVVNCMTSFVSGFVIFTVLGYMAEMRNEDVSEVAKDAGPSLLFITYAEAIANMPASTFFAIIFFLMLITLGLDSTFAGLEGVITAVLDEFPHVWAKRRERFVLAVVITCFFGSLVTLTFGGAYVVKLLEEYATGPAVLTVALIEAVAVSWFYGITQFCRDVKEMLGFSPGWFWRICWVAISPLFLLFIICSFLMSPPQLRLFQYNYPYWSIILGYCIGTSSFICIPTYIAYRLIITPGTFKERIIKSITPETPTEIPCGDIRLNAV
Assay [6] deals with 5-hydroxytryptamine receptor 2C (Rattus norvegicus, UniProt P08909).
Chain of 5-hydroxytryptamine receptor 2C (P08909 whole entry): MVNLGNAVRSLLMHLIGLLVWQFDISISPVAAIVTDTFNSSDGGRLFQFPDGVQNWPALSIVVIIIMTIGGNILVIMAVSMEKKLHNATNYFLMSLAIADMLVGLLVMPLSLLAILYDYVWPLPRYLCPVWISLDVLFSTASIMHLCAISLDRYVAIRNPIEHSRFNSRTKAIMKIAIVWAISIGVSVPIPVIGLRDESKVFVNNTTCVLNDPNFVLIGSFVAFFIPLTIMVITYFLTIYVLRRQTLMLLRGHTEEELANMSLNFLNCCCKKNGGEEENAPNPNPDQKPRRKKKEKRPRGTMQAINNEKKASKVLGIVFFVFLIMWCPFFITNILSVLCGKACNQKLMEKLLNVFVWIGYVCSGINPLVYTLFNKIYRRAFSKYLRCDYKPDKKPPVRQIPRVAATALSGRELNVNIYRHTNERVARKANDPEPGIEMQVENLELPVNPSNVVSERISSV
The target in a further assay is D(1A) dopamine receptor (Homo sapiens, UniProt P21728). Put plainly: Binding affinity to D1 receptor (unknown origin).
Chain of D(1A) dopamine receptor (P21728 whole entry): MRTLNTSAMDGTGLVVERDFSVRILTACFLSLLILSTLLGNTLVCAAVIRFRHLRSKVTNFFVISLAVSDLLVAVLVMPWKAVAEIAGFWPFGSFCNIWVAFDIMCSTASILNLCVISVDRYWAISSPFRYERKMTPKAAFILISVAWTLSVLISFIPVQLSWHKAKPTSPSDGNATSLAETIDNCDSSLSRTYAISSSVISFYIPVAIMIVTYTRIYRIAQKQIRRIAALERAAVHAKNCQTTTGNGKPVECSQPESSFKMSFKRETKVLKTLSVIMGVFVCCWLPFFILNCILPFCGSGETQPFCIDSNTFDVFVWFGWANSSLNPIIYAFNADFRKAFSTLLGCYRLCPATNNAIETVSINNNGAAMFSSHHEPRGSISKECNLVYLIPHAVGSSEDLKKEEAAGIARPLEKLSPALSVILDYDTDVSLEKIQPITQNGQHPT
Assay [7] addresses 5-hydroxytryptamine receptor 2A (Rattus norvegicus, UniProt P14842). Briefly: biochemical.
Assay [8] concerns the target Sigma non-opioid intracellular receptor 1 (Homo sapiens, UniProt Q99720). Briefly: Binding affinity to sigma 1 receptor (unknown origin).
The target in assay [9] is Adrenergic receptor alpha-1 (Rattus norvegicus, UniProt P15823+P23944+P43140).
Assay [10] concerns the target Adrenergic receptor alpha-2 (Homo sapiens, UniProt P08913+P18825+P18089). Put plainly: Binding affinity to alpha2 adrenergic receptor (unknown origin). Format: protein assay.
The target of assay [11] is 5-hydroxytryptamine receptor 7 (Rattus norvegicus, UniProt P32305). Briefly: biochemical.
The target in assay [12] is Sigma intracellular receptor 2 (Homo sapiens, UniProt Q5BJF2). Briefly: Binding affinity to sigma 2 receptor (unknown origin).
Chain of Sigma intracellular receptor 2 (Q5BJF2 whole entry): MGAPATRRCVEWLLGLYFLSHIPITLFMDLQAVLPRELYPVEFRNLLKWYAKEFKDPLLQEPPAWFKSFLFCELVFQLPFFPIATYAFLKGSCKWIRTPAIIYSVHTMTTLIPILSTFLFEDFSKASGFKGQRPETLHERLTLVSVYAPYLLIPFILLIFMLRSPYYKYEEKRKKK
In another assay the target is Histamine H1 receptor (Cavia porcellus, UniProt P31389).
Chain of Histamine H1 receptor (P31389 whole entry): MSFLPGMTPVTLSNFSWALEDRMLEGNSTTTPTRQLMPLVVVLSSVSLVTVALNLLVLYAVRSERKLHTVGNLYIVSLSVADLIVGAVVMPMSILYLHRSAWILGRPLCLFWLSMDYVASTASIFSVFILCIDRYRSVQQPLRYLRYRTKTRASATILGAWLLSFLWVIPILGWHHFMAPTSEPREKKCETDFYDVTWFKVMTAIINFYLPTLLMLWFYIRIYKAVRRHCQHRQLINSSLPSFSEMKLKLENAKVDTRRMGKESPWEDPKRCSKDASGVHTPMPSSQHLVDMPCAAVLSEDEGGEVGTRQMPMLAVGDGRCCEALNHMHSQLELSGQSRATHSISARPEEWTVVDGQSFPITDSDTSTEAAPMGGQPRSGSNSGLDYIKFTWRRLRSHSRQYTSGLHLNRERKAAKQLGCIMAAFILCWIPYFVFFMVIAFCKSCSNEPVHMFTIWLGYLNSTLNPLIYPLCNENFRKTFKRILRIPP
Assay [13] deals with Sodium-dependent noradrenaline transporter (Homo sapiens, UniProt P23975). Put plainly: Binding affinity to NET (unknown origin).

Molecules are shown by their SMILES.

Chain of Histamine H3 receptor (Q9Y5N1 whole entry): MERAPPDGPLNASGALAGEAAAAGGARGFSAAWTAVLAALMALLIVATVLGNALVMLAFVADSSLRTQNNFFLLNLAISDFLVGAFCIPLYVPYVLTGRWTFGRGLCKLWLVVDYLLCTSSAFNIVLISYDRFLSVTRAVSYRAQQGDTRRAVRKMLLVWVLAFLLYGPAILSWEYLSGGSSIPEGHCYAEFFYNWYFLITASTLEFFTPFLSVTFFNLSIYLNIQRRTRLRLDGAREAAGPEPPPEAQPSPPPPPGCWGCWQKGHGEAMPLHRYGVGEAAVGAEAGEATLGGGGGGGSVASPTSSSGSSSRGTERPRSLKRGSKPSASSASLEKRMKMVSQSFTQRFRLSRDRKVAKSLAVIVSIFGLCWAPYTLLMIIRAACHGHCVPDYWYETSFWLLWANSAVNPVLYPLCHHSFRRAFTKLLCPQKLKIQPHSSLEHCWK
Chain of 5-hydroxytryptamine receptor 2A (Homo sapiens, UniProt P28223) (P28223 whole entry): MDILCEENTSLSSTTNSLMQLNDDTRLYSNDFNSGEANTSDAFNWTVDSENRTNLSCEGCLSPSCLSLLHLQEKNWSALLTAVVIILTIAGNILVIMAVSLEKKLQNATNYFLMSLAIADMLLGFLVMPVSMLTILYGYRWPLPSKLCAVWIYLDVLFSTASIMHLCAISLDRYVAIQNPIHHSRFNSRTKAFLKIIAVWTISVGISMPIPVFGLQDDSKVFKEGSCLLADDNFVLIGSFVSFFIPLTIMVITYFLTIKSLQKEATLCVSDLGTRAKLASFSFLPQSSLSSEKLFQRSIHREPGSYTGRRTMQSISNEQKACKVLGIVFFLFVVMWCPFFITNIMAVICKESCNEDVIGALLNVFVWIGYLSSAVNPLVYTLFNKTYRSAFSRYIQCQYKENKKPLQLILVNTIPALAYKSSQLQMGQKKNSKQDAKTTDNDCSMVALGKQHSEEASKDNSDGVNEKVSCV

The Ki is a dissociation constant, usually derived from enzyme kinetics or from competition with a known ligand. A lower Ki goes with a stronger hold on the target. In general, IC50 refers to the midpoint of a concentration-inhibition curve. On to `CN1CCc2ccc(OCCCN3CCC(c4noc5cc(F)ccc45)CC3)cc2C1=O`, for which the inhibition constant (Ki) was more than 1000 nM on Histamine H3 receptor; 226 nM on D(3) dopamine receptor; more than 1000 nM in [1]; 9.1 nM in assay [2]; more than 1000 nM in [5]; 1690 nM in [6]. Moreover, the inhibition constant Ki at D(1A) dopamine receptor was more than 1000 nM; in assay [7] it was 0.65 nM; in assay [8], more than 1000 nM; in assay [9], 991 nM; in assay [10], more than 1000 nM; in assay [11], 4.9 nM. Besides, the Ki was more than 1000 nM in [12], 1200 nM at Histamine H1 receptor and more than 1000 nM in assay [13]. Besides, the results for the IC50 in assay [3] and in assay [4] were 2310 nM and 46.3 nM, respectively.
